Test system: methicillin-resistant Staphylococcus aureus (MRSA)
Experiment: MIC, two-fold agar dilution (CLSI), clinical isolates
Format: cell-based
Settings: Table 8; strain and unit inferred, MRSA
Source text: 1. The invention adopts the two-fold agar dilution method recommended by the operating procedure of antimicrobial susceptibility testing set by American Clinical and Laboratory Standards Institute (CLSI) to determine the Minimum Inhibitory Concentration (MIC) of the test samples against the tested strains.

Row | SMILES | Measured MIC [µg/mL]
1 | CCCC[C@H](CN(O)C=O)C(=O)N1CCC[C@H]1C(=O)Nc1ccc(F)c[n+]1[O-] [A, reference compound] | 0.5
2 | CCCC[C@H](CN(O)C=O)C(=O)N1CC=C[C@H]1C(=O)Nc1ccc(F)c[n+]1[O-] [B, reference compound] | 1
3 | C=C1C[C@@H](C(=O)Nc2ccc(F)c[n+]2[O-])N(C(=O)[C@H](CCCC)CN(O)C=O)C1 [C, reference compound] | 0.5
4 | CCCC[C@H](CN(O)C=O)C(=O)N1CC2(CC2)C[C@H]1C(=O)Nc1ccc(F)c[n+]1[O-] [D] | 0.125
